The target in experiment [1] is T1, IGF1R (Homo sapiens, UniProt P08069).
T1 construct: made in house
Kind of experiment: IGF1R cellular free kinase assay (pGT substrate phosphorylation). Conditions: partially purified IGF1R; 20 μM ATP; read-out: IC50 values of IGF1R activity in cellular free kinase assay. Format: biochemical. The protocol:
The general protein-tyrosine kinase substrate, poly(Glu,Tyr) 4:1 (pGT), was coated onto a 96-well Maxisorp plates (Nunc) by adding 125 μl of 0.1 mg/ml pGT in PBS to each well. Plates were sealed and incubated for 16 hours at 37° C., washed once with TBST (10 mM Tris-HCl, pH 7.5, 50 mM NaCl, and 0.1% Triton X-100) and once with DDW, dried for 2-3 hours, and stored at 4° C. […] The plate was then washed with TBS with 0.2% Tween 20 (TBST) and blocked with 0.5% BSA in TBST. Mouse monoclonal anti-phosphotyrosine antibody, conjugated to Horse radish peroxidase (PT-66, 1:50000) was added to the plate. Following incubation for 45 min at room temperature, the plate was washed repeatedly with TBST. Detection was carried out with a color reagent, 2,2′-azido-bis-3-ethylbenzithiazoline-6-sulfonic acid, in citrate-phosphate buffer, pH 4.0, with 0.004% H2O2 for 10 min and monitored at 405 nm, all at room temperature. IC50 values of inhibitors were calculated using the REGRESSION program. The assay was optimized with respect to the amount of IGF-1R (partially purified from cells overexpressing IGF1R), reaction time, and ATP concentration. The signal was linear for 30 min in the range of IGF1R protein concentrations up to 35 ng/well.

In experiment [2] the test system is IRS1. Briefly: IRS1 Ser-phosphorylation and IRS1 levels in MCF7 cells. The class given is cell-based. The conditions noted are these: breast cancer MCF7 cells. The protocol:
(§1) Tyrosine autophosphorylation of the β-subunit of IGF1R as well as downstream signaling induced by IGF1R were assayed in breast cancer MCF7 cells. Tyrosine autophosphorylation of the EGFR and the EGFR signaling was assayed in prostate cancer PC3 cells. Tyrosine autophosphorylation of the PDGFR and its signaling was assayed in fibroblasts overexpres sing PDGFR. Tyro sine autophosphorylation of the IR and its signaling was assayed in fibroblasts overexpressing IR. Cells were seeded in 6-well plates (MCF7-250,000 cells/well, PC3-150,000 cells/well, fibroblasts-140,000 cells/well) and 24 hours later medium was replaced by serum-free medium (DMEM supplemented with 100 units/ml penicillin and 100 μg/ml streptomycin). Following 20 hours of serum-starvation medium was replaced with medium containing various concentrations of the inhibitors in 0.1% DMSO for additional 4 hours. Cells were then stimulated for 5 min with 50 ng/ml IGF-1 (MCF7 cells), 20 ng/ml EGF (PC3 cells), 50 ng/ml PDGF (fibroblasts overexpressing PDGFR) or 100 nM insulin (fibroblasts overexpressing IR), washed twice with PBS and lysed by boiling sample buffer (10% glycerol, 50 mM Tris-HCl, pH 6.8, 3% SDS, and 5%, β-mercaptoethanol). Equal amounts of protein per lane were separated by 8% SDS-PAGE and transferred to a nitrocellulose membrane (Sartorius AG). Phosphorylated proteins were immunoblotted with anti-phospho-IGF1R (phosphor-IGF1R), anti-phosphotyrosine-IRS1 (phospho-IRS1), anti-phospho(T308)Akt (phospho-PKB), anti-phospho-Erk (phospho-ERK), anti-phosphotyrosine 4G10&PY20 (pY-EGFR or pY-PDGFR), anti-phospho-Ser^636/639-IRS1 (pS^636/639-IRS1) and anti-phospho-STAT3 (phospho-STAT3) antibodies. Detection was performed with horseradish peroxidase-conjugated secondary antibody using the ECL system. Blots were then stripped of antibodies, blocked with TBST with 5% low fat milk and re-probed with antibodies detecting both the phosphorylated and the non-phosphorylated corresponding proteins e.g. IGF1Rβ, IRS1, PKB, ERK, IRβ, PDGFR and Stat3.
(§2) In addition, lysates were prepared from cells exposed to inhibitors at various concentrations for 24 hours in the presence or the absence of FCS without stimulation. Lysate preparation and western blot were the same as described above. Apoptosis was detected by immunoblotting with rabbit anti-PARP antibodies.

The subject of experiment [3] is IRS1. Briefly: IRS1 Ser-phosphorylation in YUMAC cells. Format: cell-based, human. Conditions: metastatic melanoma YUMAC cells. The protocol:
as §2

Experiment [4] deals with metastatic melanoma YUMAC cells. Briefly: Apoptosis (cleaved PARP) in YUMAC cells. Format: cell-based, human. The conditions noted are these: 24 hours of exposure, 3 μM. The protocol: as §2
Another experiment concerns YUMAC. Kind of experiment: Proliferation assay YUMAC. Format: cell-based. Conditions: Homo sapiens; Table 4; 72 hours incubation; read-out: Inhibition of human metastatic melanoma cells, YUMAC IC50. The protocol: (§3) Various cancer cell lines (listed in table 1) were plated at a density of 1000-5000 cells/well in 96-well plates in 90111 growth medium containing 10% FCS, 100 units/ml penicillin and 100 μg/ml streptomycin. Inhibitors were added a day later in 10 μl of 1% DMSO in DDW to obtain final concentrations of 0, 0.1, 0.3, 1, 3, and 10 μM. The final concentration of DMSO (0.1% DMSO) was kept constant in all samples. Medium with inhibitors was refreshed a day and two days later. Following exposure of the cells to the inhibitors for 72 hours at 37° C., the cells were fixed in 0.5% gluteraldehyde in medium for 10 min, washed three times with DDW, once with 0.1M sodium borate buffer pH 8.5 and stained with 1% methylene blue dissolved in 0.1M borate buffer solution for 60 min. Excess dye was washed out and cell-bound dye was eluted with 200 μl/well of 0.1 M HCl. The optical density value was read at 620 nm in ELISA plate reader. The data was analyzed in Microsoft Excel, using the vehicle control as 100% proliferation. The assays were performed in triplicates. The values in table 1 represent IC50 values derived from the dose-dependent growth curves obtained.
(§4) Compounds 6, 7, 8, and 9 were tested for their inhibitory potential in cell proliferation assay. In this assay cells were exposed to increasing concentrations of the molecules (at 0.1% DMSO in all wells) a day after seeding. Medium and inhibitors were refreshed every day, and following three days of treatment, cells were fixed and stained with methylene-Blue. IC50 values were determined from the curves of the optical density against compound concentration. The assay was performed in triplicates.

The next experiment concerns YURIF. Briefly: Proliferation assay YURIF. Conditions: Homo sapiens; Table 4; 72 hours incubation; read-out: Inhibition of human metastatic melanoma cells, YURIF IC50. The class given is cell-based. The protocol: as §3, §4
Experiment [5] has as its target T1, IGF1R. Kind of experiment: Inhibition of IGF1-induced signaling in intact MCF7 cells (western blot). The class given is cell-based. Conditions: 4 h exposure, IGF1 stimulation. The protocol: as §1

Here are results for ten compounds from patent publication US8058309B2, “Protein kinase modulators and therapeutic uses thereof” (Novotyr Therapeutics Ltd., priority 2006, dated 2011).

pIC50: −log10 of the molar value. Entries after “also recorded” stand apart in the source; their conditions may differ.

T1 sequence (P08069 31-1367, species assumed): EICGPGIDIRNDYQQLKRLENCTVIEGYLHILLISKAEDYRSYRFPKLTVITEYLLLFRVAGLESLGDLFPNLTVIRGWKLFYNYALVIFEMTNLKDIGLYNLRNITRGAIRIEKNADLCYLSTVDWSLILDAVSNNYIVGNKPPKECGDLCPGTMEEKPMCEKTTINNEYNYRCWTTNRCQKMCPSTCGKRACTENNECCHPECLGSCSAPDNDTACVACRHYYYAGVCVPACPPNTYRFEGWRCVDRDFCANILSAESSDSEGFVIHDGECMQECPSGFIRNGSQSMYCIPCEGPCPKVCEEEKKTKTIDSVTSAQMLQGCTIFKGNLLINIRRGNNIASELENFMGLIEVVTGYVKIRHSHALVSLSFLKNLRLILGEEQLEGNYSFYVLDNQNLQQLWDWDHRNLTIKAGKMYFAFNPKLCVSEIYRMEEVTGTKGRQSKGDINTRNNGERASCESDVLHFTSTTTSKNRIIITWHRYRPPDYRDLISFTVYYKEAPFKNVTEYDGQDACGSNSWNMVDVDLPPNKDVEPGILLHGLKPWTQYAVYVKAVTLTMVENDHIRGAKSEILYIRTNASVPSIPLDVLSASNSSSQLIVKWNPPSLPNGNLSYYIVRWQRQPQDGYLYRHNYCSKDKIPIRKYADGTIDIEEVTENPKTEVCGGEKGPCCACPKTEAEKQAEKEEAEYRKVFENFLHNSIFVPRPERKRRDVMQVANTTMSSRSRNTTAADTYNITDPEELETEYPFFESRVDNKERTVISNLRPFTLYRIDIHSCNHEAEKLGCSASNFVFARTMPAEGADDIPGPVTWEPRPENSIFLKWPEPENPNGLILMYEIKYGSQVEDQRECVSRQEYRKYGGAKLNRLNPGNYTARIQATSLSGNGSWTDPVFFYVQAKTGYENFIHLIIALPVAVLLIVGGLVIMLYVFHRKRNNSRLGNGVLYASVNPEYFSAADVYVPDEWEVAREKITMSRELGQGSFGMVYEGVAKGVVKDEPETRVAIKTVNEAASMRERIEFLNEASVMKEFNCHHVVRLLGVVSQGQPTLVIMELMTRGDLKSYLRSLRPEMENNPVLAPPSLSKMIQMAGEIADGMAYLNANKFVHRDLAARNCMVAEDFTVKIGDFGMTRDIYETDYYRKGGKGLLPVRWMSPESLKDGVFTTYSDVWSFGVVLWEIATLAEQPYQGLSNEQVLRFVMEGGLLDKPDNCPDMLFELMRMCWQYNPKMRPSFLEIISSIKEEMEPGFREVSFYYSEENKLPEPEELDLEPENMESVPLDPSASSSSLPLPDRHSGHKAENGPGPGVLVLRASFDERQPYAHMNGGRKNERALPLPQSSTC

With `Oc1cc(CNC(=S)/C=C/c2cc(O)c(O)c(I)c2)cc(O)c1O` [Compound 10], the values for the pIC50 at IGF1R [1], with YUMAC and in the experiment on YURIF were 7.48, 6.52 and 6.33, respectively. In addition, the “IRS1 Ser-phosphorylation” value in the experiment on IRS1 [2] is “trigger IRS1-ser phosphorylation”; in the experiment with IRS1 [3] it was “trigger IRS1-ser phosphorylation; also recorded: detected”. Further, in experiment [4], the “Cleavage of PARP (apoptosis)” value is on record as “detected”.
As for `N#C/C(=C\c1cc(O)c(O)c(I)c1)C(=S)NCc1ccc(O)c(O)c1` [Compound 16], at IGF1R [1], the negative logarithm of the IC50 (pIC50) was 6.71.
`N#C/C(=C\c1cc(O)c(O)c(C(F)(F)F)c1)C(=S)NCc1cc(O)c(O)c(O)c1` [Compound 13]: the values for the pIC50 at IGF1R [1], in the experiment with YUMAC and in the experiment on YURIF were 7.17, 6.00 and 6.06, respectively. The “IRS1 Ser-phosphorylation” value in the experiment on IRS1 [2] is “trigger IRS1-ser phosphorylation”; in the experiment with IRS1 [3], “trigger IRS1-ser phosphorylation; also recorded: detected”. Further, the “Cleavage of PARP (apoptosis)” value in experiment [4] was “detected”.
For `N#C/C(=C\c1cc(O)c(O)c(F)c1)C(=S)NCc1cc(O)c(O)c(O)c1` [Compound 12], at IGF1R [1], the negative logarithm of the IC50 (pIC50) is 6.77.
In the case of `N#C/C(=C\c1cc(O)c(O)c(Cl)c1)C(=S)NCc1cc(O)c(O)c(O)c1` [Compound 11], the negative logarithm of the IC50 (pIC50) on IGF1R [1] is 6.70 to 7.52; in the experiment on YUMAC it was 5.92; in the experiment on YURIF it was 5.92. Besides, the “IRS1 Ser-phosphorylation” value in the experiment with IRS1 [2] and with IRS1 [3] was “trigger IRS1-ser phosphorylation” each time.
Take `N#C/C(=C\c1cccc(Br)c1)C(=S)NCc1cc(O)c(O)c(O)c1` [Compound 19]: the negative logarithm of the IC50 (pIC50) on IGF1R [1] is 6.15; in the experiment on YUMAC, approximately 5.00; with YURIF it was less than 5.00.
Regarding `N#C/C(=C\c1cc(O)c(O)c(Br)c1)C(=S)NCc1ccc(O)c(O)c1` [Compound 15], on IGF1R [1], the pIC50 is 6.94.
Turning to `Oc1cc(/C=C/C(=S)NCc2cc(O)c(O)c(Br)c2)cc(Br)c1O` [Compound 18], the negative-log IC50 (pIC50) on IGF1R [1] was 6.71.
Take `N#C/C(=C\c1cc(O)c(O)c(O)c1)C(=S)NCc1cc(O)c(O)c(Br)c1` [Compound 17]: the pIC50 was 7.31 at IGF1R [1], less than 5.00 in the experiment with YUMAC and less than 5.00 in the experiment on YURIF.
Regarding `N#C/C(=C\c1ccc2oc(=S)[nH]c2c1)C(=O)c1ccc(O)c(O)c1` [Compound 20, reference compound], the “Inhibition of IGF1R autophosphorylation and IGF1-induced signaling (IRS1 pTyr, Akt/PKB, MAPK/ERK)” value on IGF1R [5] is “had no effect on the signaling”.
